We go through seven molecules from patent publication US4994479A, “Phenylene derivatives and anti-allergic use thereof” (Yamanouchi Pharmaceutical Co., Ltd., priority 1985, dated 1991).

One experiment relates to LTD4-enhanced vascular permeability. Kind of experiment: Inhibition of LTD4-enhanced vascular permeability in guinea-pigs. The conditions noted are these: Cavia porcellus; oral, 30 minutes before intradermal 5 ng LTD4. The experiment is classed as in vivo, guinea-pig (male Hartley). On the procedure:
Male Hartley guinea-pigs weighing 270 to 305, g starved for 16 hours, were intradermally injected with 5 ng LTD4 in a volume of 0.1 ml into two sites on the shaved back. In addition, 0.1 ml of vehicle was injected intradermally in each animal to see non-specific irritation. One ml of saline containing 1% Evans […] was intravenously injected 2 minutes before LTD4 injection. The leaked dye at the site of LTD4 or vehicle injection was extracted according to the method of Harada et al. (1971) and measured photometrically at 620 nm. The LTD4 -induced skin reaction was expressed as a difference in the amount of dye between LTD4 and vehicle. Test compounds were orally administered 30 minutes before LTD4 injection.
Regarding `CCCCCCCOc1cccc(C(=O)Nc2ccccc2OCc2nnn[nH]2)c1` [Example 23, 3-Heptyloxy-2'-(5-tetrazolylmethoxy)benzanilide], the median effective dose (ED50) worked out at 22.8 mg/kg.

As for `Cc1ccc(OCC(=O)O)c(NC(=O)c2ccc(OCCCCc3ccccc3)cc2)c1` [Example 39, 4-methyl-2-[p-(4-phenylbutoxy)benzamido]phenoxyacetic acid], the ED50 was found to be 36.1 mg/kg.

With `O=C(O)COc1ccc(Cl)cc1NC(=O)c1ccc(OCCCCc2ccccc2)cc1` [Example 40, 4-Chloro-2-[p-(4-phenylbutoxy)benzamido]phenoxyacetic acid], the ED50 was determined as 5.5 mg/kg.

Still in this experiment, the particulars now being: in words.
For the molecule `CCCCCCCOc1cccc(C(=O)Nc2ccccc2OCc2nnn[nH]2)c1` [Example 23, 3-Heptyloxy-2'-(5-tetrazolylmethoxy)benzanilide], the “anti-Leukotriene effect by oral route” value is given as “potent anti-Leukotriene effect”.

Take `Cc1ccc(OCC(=O)O)c(NC(=O)c2ccc(OCCCCc3ccccc3)cc2)c1` [Example 39, 4-methyl-2-[p-(4-phenylbutoxy)benzamido]phenoxyacetic acid]: the “anti-Leukotriene effect by oral route” value was “potent anti-Leukotriene effect”.

As to `O=C(O)COc1ccc(Cl)cc1NC(=O)c1ccc(OCCCCc2ccccc2)cc1` [Example 40, 4-Chloro-2-[p-(4-phenylbutoxy)benzamido]phenoxyacetic acid], the “anti-Leukotriene effect by oral route” value is “potent anti-Leukotriene effect”.

Staying with this experiment, now noted: oral, 30 minutes before LTD4; in words.
As to `CCCCCCCOc1cccc(C(=O)Nc2ccccc2OCc2nnn[nH]2)c1` [Example 23, 3-Heptyloxy-2'-(5-tetrazolylmethoxy)benzanilide], the “inhibition of LTD4-enhanced vascular permeability” value is “dose-dependently inhibited”.

For `Cc1ccc(OCC(=O)O)c(NC(=O)c2ccc(OCCCCc3ccccc3)cc2)c1` [Example 39, 4-methyl-2-[p-(4-phenylbutoxy)benzamido]phenoxyacetic acid], the “inhibition of LTD4-enhanced vascular permeability” value is on record as “dose-dependently inhibited”.

Consider `O=C(O)COc1ccc(Cl)cc1NC(=O)c1ccc(OCCCCc2ccccc2)cc1` [Example 40, 4-Chloro-2-[p-(4-phenylbutoxy)benzamido]phenoxyacetic acid], for which the “inhibition of LTD4-enhanced vascular permeability” value is listed as “dose-dependently inhibited”.

A further experiment deals with LTD4-induced contractions of guinea-pig trachea. Kind of experiment: Inhibition of LTD4-induced contractions of isolated guinea-pig trachea. Further details: species or system guinea-pig (male Hartley). The conditions noted are these: Cavia porcellus, 20 min, 10^-8 M LTD4, incubation 20 minutes. On the procedure:
(§1) Male Hartley guinea- pigs, weighing 500 to 700 g were sacrificed by a blow on the head. The ileum and tracheal strips prepared according to the method of Constantine (1965) were suspended with 1.0 g tension in an organ bath containing 10 ml of Tyrode solution equilibrated with a mixture of 95% O2 and 5% CO2 at 37° C. The tissues were equilibrated for 60 minutes; during this period the Tyrode solution was replaced every 15 minutes and the loading tension was adjusted to 1.0 g. The developed tension of the tissues was measured isometrically with a strain gauge transducer, and recorded on a Recticorder. Both the contractile response of the ileum to submaximal concentration of SRS-A (derived from guinea-pig lung) and tracheal response to 10^-8 M LTD4 were recorded in the absence and then the presence of various concentrations of test compounds. The incubation time of the compounds was 20 minutes.
With `CCCCCCCOc1cccc(C(=O)Nc2ccccc2OCc2nnn[nH]2)c1` [Example 23, 3-Heptyloxy-2'-(5-tetrazolylmethoxy)benzanilide], the concentration for half-maximal inhibition (IC50) was 400 nM.

In turn, `Cc1ccc(OCC(=O)O)c(NC(=O)c2ccc(OCCCCc3ccccc3)cc2)c1` [Example 39, 4-methyl-2-[p-(4-phenylbutoxy)benzamido]phenoxyacetic acid] registered an IC50 of 250 nM.

Molecule `O=C(O)COc1ccc(Cl)cc1NC(=O)c1ccc(OCCCCc2ccccc2)cc1` [Example 40, 4-Chloro-2-[p-(4-phenylbutoxy)benzamido]phenoxyacetic acid] had an IC50 of 57 nM.

Staying with this experiment, now noted: in words.
On to `CCCCCCCOc1cccc(C(=O)Nc2ccccc2OCc2nnn[nH]2)c1` [Example 23, 3-Heptyloxy-2'-(5-tetrazolylmethoxy)benzanilide], for which the “inhibition of contractions induced by LTD4” value (shortened to “inhibition … by LTD4”) was “inhibited the contractions induced by LTD4”.

In the case of `Cc1ccc(OCC(=O)O)c(NC(=O)c2ccc(OCCCCc3ccccc3)cc2)c1` [Example 39, 4-methyl-2-[p-(4-phenylbutoxy)benzamido]phenoxyacetic acid], the “inhibition … by LTD4” value is on record as “inhibited the contractions induced by LTD4”.

On to `O=C(O)COc1ccc(Cl)cc1NC(=O)c1ccc(OCCCCc2ccccc2)cc1` [Example 40, 4-Chloro-2-[p-(4-phenylbutoxy)benzamido]phenoxyacetic acid], for which the “inhibition … by LTD4” value is reported as “inhibited the contractions induced by LTD4”.

Another experiment concerns SRS-A-induced contractions of guinea-pig ileum. The experiment can be described thus: Inhibition of SRS-A-induced contractions of isolated guinea-pig ileum. Further details: species or system guinea-pig (male Hartley). As to conditions: Cavia porcellus, 20 min, submaximal concentration of SRS-A, incubation 20 minutes. On the procedure:
as §1
Take `CCOC(=O)CCc1ccccc1NC(=O)c1ccc(OCCCCc2ccccc2)cc1` [Example 10, Ethyl 3-[o-[p-(4-phenylbutoxy)benzamido]phenyl]propionate]: the IC50 came to 18 nM.

For `O=C(O)CCc1ccccc1NC(=O)c1ccc(OCCCCc2ccccc2)cc1` [Example 18, 3-[o-[p-(4-Phenylbutoxy)benzamido]phenyl]propionic acid], the IC50 is 33 nM.

Regarding `CCCCCCCOc1cccc(C(=O)Nc2ccccc2OCc2nnn[nH]2)c1` [Example 23, 3-Heptyloxy-2'-(5-tetrazolylmethoxy)benzanilide], 44 nM corresponded to half-maximal inhibition (IC50).

Turning to `Cc1ccc(OCC(=O)O)c(NC(=O)c2ccc(OCCCCc3ccccc3)cc2)c1` [Example 39, 4-methyl-2-[p-(4-phenylbutoxy)benzamido]phenoxyacetic acid], the IC50 amounted to 7.3 nM.

Take `O=C(O)COc1ccc(Cl)cc1NC(=O)c1ccc(OCCCCc2ccccc2)cc1` [Example 40, 4-Chloro-2-[p-(4-phenylbutoxy)benzamido]phenoxyacetic acid]: it took 3.6 nM to reach half-maximal inhibition (IC50).

`O=C(O)COc1ccc([N+](=O)[O-])cc1NC(=O)c1ccc(OCCCCc2ccccc2)cc1` [Example 41, 4-Nitro-2-[p-(4-phenylbutoxy)benzamido]phenoxyacetic acid] had an IC50 of 7.4 nM.

As to `O=C(O)COc1ccccc1NC(=O)c1ccc(OCCCCc2ccccc2)cc1` [Example 42, o-[p-(4-Phenylbutoxy)benzamido]phenoxyacetic acid], half-maximal inhibition (IC50) was put at 81 nM.

The same experiment, now with this note: in words.
`CCOC(=O)CCc1ccccc1NC(=O)c1ccc(OCCCCc2ccccc2)cc1` [Example 10, Ethyl 3-[o-[p-(4-phenylbutoxy)benzamido]phenyl]propionate]: the anti-SRS-A activity result is “potent anti-SRS-A activity”.

Turning to `O=C(O)CCc1ccccc1NC(=O)c1ccc(OCCCCc2ccccc2)cc1` [Example 18, 3-[o-[p-(4-Phenylbutoxy)benzamido]phenyl]propionic acid], the anti-SRS-A activity entry is “potent anti-SRS-A activity”.

As for `CCCCCCCOc1cccc(C(=O)Nc2ccccc2OCc2nnn[nH]2)c1` [Example 23, 3-Heptyloxy-2'-(5-tetrazolylmethoxy)benzanilide], the anti-SRS-A activity result was “potent anti-SRS-A activity”.

As for `Cc1ccc(OCC(=O)O)c(NC(=O)c2ccc(OCCCCc3ccccc3)cc2)c1` [Example 39, 4-methyl-2-[p-(4-phenylbutoxy)benzamido]phenoxyacetic acid], the anti-SRS-A activity result was “potent anti-SRS-A activity”.

Consider `O=C(O)COc1ccc(Cl)cc1NC(=O)c1ccc(OCCCCc2ccccc2)cc1` [Example 40, 4-Chloro-2-[p-(4-phenylbutoxy)benzamido]phenoxyacetic acid], for which the anti-SRS-A activity result is listed as “potent anti-SRS-A activity”.

As for `O=C(O)COc1ccc([N+](=O)[O-])cc1NC(=O)c1ccc(OCCCCc2ccccc2)cc1` [Example 41, 4-Nitro-2-[p-(4-phenylbutoxy)benzamido]phenoxyacetic acid], the anti-SRS-A activity result was “potent anti-SRS-A activity”.

Turning to `O=C(O)COc1ccccc1NC(=O)c1ccc(OCCCCc2ccccc2)cc1` [Example 42, o-[p-(4-Phenylbutoxy)benzamido]phenoxyacetic acid], the anti-SRS-A activity result is recorded as “potent anti-SRS-A activity”.

For orientation: ED50 means the dose that gives a 50% effect, or the effect in half of the subjects. In general, IC50 refers to the midpoint of a concentration-inhibition curve.
